The results in this text go back to patent US20220372013A2, “PIPERIDINE-2,6-DIONE DERIVATIVES AND CROHN'S DISEASE TREATING” (Tianjin Hemay Pharmaceutical Sci-Tech Co., Ltd, priority 2016, published 2022).

Several values for one entry are separate records, joined by “and”; a condition that tells them apart may be missing. Identical values can stand only once.

For this data set, the system named is mice. Nature of the data set: Biological Example 5: acute toxicity experiment of single oral administration in mice. The data set is classed as in vivo. Particulars: single oral 1000 mg/Kg, Mean ± SD. The method, then:
The mice were fasted one day before the experiment. On the day of the experiment, 6 mice (ICR mice, body weight of 19-21 g, three females and three males) were selected in each experiment group. First of all, one female and one male were selected to orally give 1000 mg/Kg, and observed for 5-10 minutes. If there were no obvious side effects, the remaining 4 animals were orally given the same dose, and observed for 10-15 minutes. If no animal died, the animals were placed in a box to balancedly feed for 7 days. The state was observed and the body weight was recorded daily.
Observation Indexes within 0-15 Minutes after Administration
Activity: restlessness, hyperactivity
Nervous system response: tremor, spasm, convulsion, ataxia, posture abnormality, etc.
Autonomic nerve: exophthalmos, salivation, tears, urination (hematuria), diarrhea, piloerection, breathing, etc.
State of Animal: lethargy, hyperactivity, excitement, hair loss, diarrhea, abnormal behavior, death, etc.

For `COCCN1C(=O)CCC(N2C(=O)c3cccc(N(C)C)c3C2=O)C1=O` (stereo not shown) [Example 3, 4-dimethylamino-2-(1-(2-methoxyethyl)-2,6-dioxopiperidin-3-yl)isoindolin-1,3-dione], the “Daily Body Weight” value is, setting by setting: (Female mice, Day 1, 1000 mg/kg) 18.3 ± 0.4 g and 18.8 ± 0.4 g; (Female mice, Day 2, 1000 mg/kg) 21.7 ± 0.2 g and 22.1 ± 1.2 g; (Female mice, Day 3, 1000 mg/kg) 22.3 ± 0.2 g and 22.7 ± 0.8 g; (Female mice, Day 4, 1000 mg/kg) 22.6 ± 0.8 g and 23.0 ± 1.4 g; (Female mice, Day 5, 1000 mg/kg) 23.0 ± 1.4 g and 23.7 ± 1.9 g; (Female mice, Day 6, 1000 mg/kg) 22.6 ± 1.3 g and 24.1 ± 1.2 g. Further, the “Daily Body Weight” value by setting is: (Female mice, Day 7, 1000 mg/kg) 22.7 ± 0.4 g and 24.4 ± 1.8 g; (Male mice, Day 1, 1000 mg/kg) 18.8 ± 0.7 g and 18.0 ± 0.2 g; (Male mice, Day 2, 1000 mg/kg) 23.3 ± 0.1 g and 22.9 ± 0.3 g; (Male mice, Day 3, 1000 mg/kg) 24.3 ± 0.1 g and 24.3 ± 0.9 g; (Male mice, Day 4, 1000 mg/kg) 25.6 ± 0.7 g and 25.2 ± 1.1 g; (Male mice, Day 5, 1000 mg/kg) 26.9 ± 0.8 g and 27.0 ± 1.3 g. Also, the “Daily Body Weight” value (Male mice, Day 6, 1000 mg/kg) was 27.9 ± 0.9 g and 28.2 ± 1.9 g; the “Daily Body Weight” value (Male mice, Day 7, 1000 mg/kg) was 28.6 ± 0.4 g and 28.5 ± 2.7 g.
Take `COCCN1C(=O)CCC(N2C(=O)c3cccc(NC(C)=O)c3C2=O)C1=O` (stereo not shown) [Example 1, 4-acetylamino-2-(1-(2-methoxyethyl)-2,6-dioxopiperidin-3-yl)isoindolin-1,3-dione]: the “Daily Body Weight” value (Female mice, Day 1) was found to be 18.5 ± 0.1 g; the “Daily Body Weight” value (Female mice, Day 2) stood at 22.8 ± 0.3 g; the “Daily Body Weight” value (Female mice, Day 3) amounted to 23.2 ± 0.7 g; the “Daily Body Weight” value (Female mice, Day 4) was 24.0 ± 0.2 g; the “Daily Body Weight” value (Female mice, Day 5) is 25.3 ± 1.6 g; the “Daily Body Weight” value (Female mice, Day 6) is on record as 25.7 ± 1.6 g. The “Daily Body Weight” value reads like this: (Female mice, Day 7) 27.1 ± 1.1 g; (Male mice, Day 1) 20.1 ± 1.4 g; (Male mice, Day 2) 23.8 ± 1.4 g; (Male mice, Day 3) 24.9 ± 1.0 g; (Male mice, Day 4) 26.3 ± 1.2 g; (Male mice, Day 5) 27.7 ± 1.3 g. The “Daily Body Weight” value by setting is: (Male mice, Day 6) 29.2 ± 1.4 g; (Male mice, Day 7) 29.4 ± 1.4 g.
Consider `COCCCN1C(=O)CCC(N2C(=O)c3ccc(N)cc3C2=O)C1=O` (stereo not shown) [Example 18, 5-amino-2-(1-(3-methoxypropyl)-2,6-dioxopiperidin-3-yl)isoindolin-1,3-dione], for which the “Daily Body Weight” value runs as follows: (Female mice, Day 1) 18.4 ± 0.7 g; (Female mice, Day 2) 22.5 ± 0.8 g; (Female mice, Day 3) 23.8 ± 1.1 g; (Female mice, Day 4) 24.8 ± 1.5 g; (Female mice, Day 5) 24.8 ± 0.6 g; (Female mice, Day 6) 25.4 ± 0.7 g. Further, the “Daily Body Weight” value was 25.2 ± 1.1 g (Female mice, Day 7); 18.2 ± 0.4 g (Male mice, Day 1); 23.0 ± 0.7 g (Male mice, Day 2); 24.1 ± 0.4 g (Male mice, Day 3); 25.6 ± 0.8 g (Male mice, Day 4); 28.1 ± 1.1 g (Male mice, Day 5). The “Daily Body Weight” value is given as 29.0 ± 1.4 g (Male mice, Day 6) and 29.0 ± 1.0 g (Male mice, Day 7).
Regarding `CCOCCN1C(=O)CCC(N2C(=O)c3cccc(N)c3C2=O)C1=O` (stereo not shown) [Example 19, 4-amino-2-(1-(2-ethoxyethyl)-2,6-dioxopiperidin-3-yl)isoindolin-1,3-dione], the “Daily Body Weight” value reads like this: (Female mice, Day 1) 18.0 ± 0.6 g; (Female mice, Day 2) 20.7 ± 1.1 g; (Female mice, Day 3) 21.3 ± 0.6 g; (Female mice, Day 4) 22.8 ± 0.3 g; (Female mice, Day 5) 23.2 ± 0.7 g; (Female mice, Day 6) 23.3 ± 1.2 g. In addition, the “Daily Body Weight” value (Female mice, Day 7) was determined as 23.0 ± 1.7 g; the “Daily Body Weight” value (Male mice, Day 1) stood at 18.9 ± 1.2 g; the “Daily Body Weight” value (Male mice, Day 2) came out at 20.7 ± 1.1 g; the “Daily Body Weight” value (Male mice, Day 3) stood at 21.3 ± 0.6 g; the “Daily Body Weight” value (Male mice, Day 4) is given as 25.0 ± 2.0 g; the “Daily Body Weight” value (Male mice, Day 5) was 24.8 ± 1.9 g. For the same molecule, the “Daily Body Weight” value by setting is: (Male mice, Day 6) 26.5 ± 1.9 g; (Male mice, Day 7) 27.7 ± 2.2 g.
On to `CCOCCN1C(=O)CCC(N2C(=O)c3cccc(F)c3C2=O)C1=O` (stereo not shown) [Example 20, 4-fluoro-2-(1-(2-ethoxyethyl)-2,6-dioxopiperidin-3-yl)isoindolin-1,3-dione], for which the “Daily Body Weight” value is 18.7 ± 0.4 g (Female mice, Day 1); 21.6 ± 1.0 g (Female mice, Day 2); 22.1 ± 1.0 g (Female mice, Day 3); 22.1 ± 1.0 g (Female mice, Day 4); 23.0 ± 1.4 g (Female mice, Day 5); 23.3 ± 0.2 g (Female mice, Day 6). Further, the “Daily Body Weight” value is, setting by setting: (Female mice, Day 7) 23.7 ± 0.8 g; (Male mice, Day 1) 18.8 ± 1.0 g; (Male mice, Day 2) 24.0 ± 1.1 g; (Male mice, Day 3) 25.3 ± 1.2 g; (Male mice, Day 4) 25.3 ± 1.2 g; (Male mice, Day 5) 26.7 ± 1.2 g. For the same molecule, the “Daily Body Weight” value (Male mice, Day 6) is reported as 29.0 ± 1.1 g and the “Daily Body Weight” value (Male mice, Day 7) turned out to be 29.3 ± 0.7 g.
Consider `CSCCN1C(=O)CCC(N2C(=O)c3cccc(N)c3C2=O)C1=O` (stereo not shown) [Example 11, 4-amino-2-(1-(2-methylthioethyl)-2,6-dioxopiperidin-3-yl)isoindolin-1,3-dione], for which the “Daily Body Weight” value reads like this: (Female mice, Day 1) 18.1 ± 0.2 g; (Female mice, Day 2) 21.7 ± 0.2 g; (Female mice, Day 3) 22.4 ± 0.1 g; (Female mice, Day 4) 22.4 ± 0.1 g; (Female mice, Day 5) 23.5 ± 0.4 g; (Female mice, Day 6) 23.2 ± 0.8 g. For the same molecule, the “Daily Body Weight” value was 23.2 ± 0.9 g (Female mice, Day 7); 19.5 ± 0.6 g (Male mice, Day 1); 23.7 ± 0.8 g (Male mice, Day 2); 25.4 ± 0.4 g (Male mice, Day 3); 25.4 ± 0.4 g (Male mice, Day 4); 27.0 ± 0.5 g (Male mice, Day 5). Moreover, the “Daily Body Weight” value (Male mice, Day 6) amounted to 29.0 ± 0.7 g and the “Daily Body Weight” value (Male mice, Day 7) is recorded as 29.8 ± 1.0 g.
As for `COCCCN1C(=O)CCC(N2C(=O)c3cccc(F)c3C2=O)C1=O` (stereo not shown) [Example 17, 4-fluoro-2-(1-(3-methoxypropyl)-2,6-dioxopiperidin-3-yl)isoindolin-1,3-dione], the “Daily Body Weight” value by setting is: (Female mice, Day 1) 18.6 ± 1.0 g; (Female mice, Day 2) 21.9 ± 0.4 g; (Female mice, Day 3) 22.7 ± 0.4 g; (Female mice, Day 4) 22.7 ± 0.4 g; (Female mice, Day 5) 23.0 ± 0.4 g; (Female mice, Day 6) 23.1 ± 1.0 g. Besides, the “Daily Body Weight” value reads like this: (Female mice, Day 7) 22.7 ± 1.2 g; (Male mice, Day 1) 19.0 ± 0.7 g; (Male mice, Day 2) 24.0 ± 0.7 g; (Male mice, Day 3) 24.6 ± 0.8 g; (Male mice, Day 4) 24.6 ± 0.8 g; (Male mice, Day 5) 26.1 ± 0.7 g. Moreover, the “Daily Body Weight” value runs as follows: (Male mice, Day 6) 28.1 ± 0.6 g; (Male mice, Day 7) 29.3 ± 1.0 g.
As for `COCCN1C(=O)CCC(N2C(=O)c3ccc(F)c(N)c3C2=O)C1=O` (stereo not shown) [Example 9, 4-amino-5-fluoro-2-(1-(2-methoxyethyl)-2,6-dioxopiperidin-3-yl)isoindolin-1,3-dione], the “Daily Body Weight” value (Female mice, Day 1) was 17.5 ± 0.6 g; the “Daily Body Weight” value (Female mice, Day 2) is listed as 22.1 ± 0.9 g; the “Daily Body Weight” value (Female mice, Day 3) is listed as 22.1 ± 0.7 g; the “Daily Body Weight” value (Female mice, Day 4) came out at 22.8 ± 0.8 g; the “Daily Body Weight” value (Female mice, Day 5) was found to be 22.8 ± 1.0 g; the “Daily Body Weight” value (Female mice, Day 6) stood at 22.7 ± 1.6 g. For the same molecule, the “Daily Body Weight” value by setting is: (Female mice, Day 7) 23.6 ± 1.7 g; (Male mice, Day 1) 18.3 ± 0.7 g; (Male mice, Day 2) 23.6 ± 0.7 g; (Male mice, Day 3) 24.1 ± 1.0 g; (Male mice, Day 4) 25.9 ± 1.1 g; (Male mice, Day 5) 27.2 ± 0.5 g. Besides, the “Daily Body Weight” value by setting is: (Male mice, Day 6) 26.9 ± 1.4 g; (Male mice, Day 7) 27.9 ± 1.5 g.
